Test results taken from ChEMBL document CHEMBL5291721, “A preclinical secondary pharmacology resource illuminates target-adverse drug reaction associations of marketed drugs” (Nat Commun, 2023).

How the values were obtained:
Prothrombin = Prothrombin (Homo sapiens, UniProt P00734); type: functional
[1] = biological target: Gamma-aminobutyric acid receptor subunit alpha-1/alpha-2/beta-2/gamma-2 (Homo sapiens, UniProt P14867+P18507+P47869+P47870); type: protein-complex assay
[2] = biological target: cGMP-inhibited 3',5'-cyclic phosphodiesterase 3A (Homo sapiens, UniProt Q14432); type: functional
cGMP-inhibited 3',5'-cyclic phosphodiesterase 3A, sequence (Q14432 whole entry): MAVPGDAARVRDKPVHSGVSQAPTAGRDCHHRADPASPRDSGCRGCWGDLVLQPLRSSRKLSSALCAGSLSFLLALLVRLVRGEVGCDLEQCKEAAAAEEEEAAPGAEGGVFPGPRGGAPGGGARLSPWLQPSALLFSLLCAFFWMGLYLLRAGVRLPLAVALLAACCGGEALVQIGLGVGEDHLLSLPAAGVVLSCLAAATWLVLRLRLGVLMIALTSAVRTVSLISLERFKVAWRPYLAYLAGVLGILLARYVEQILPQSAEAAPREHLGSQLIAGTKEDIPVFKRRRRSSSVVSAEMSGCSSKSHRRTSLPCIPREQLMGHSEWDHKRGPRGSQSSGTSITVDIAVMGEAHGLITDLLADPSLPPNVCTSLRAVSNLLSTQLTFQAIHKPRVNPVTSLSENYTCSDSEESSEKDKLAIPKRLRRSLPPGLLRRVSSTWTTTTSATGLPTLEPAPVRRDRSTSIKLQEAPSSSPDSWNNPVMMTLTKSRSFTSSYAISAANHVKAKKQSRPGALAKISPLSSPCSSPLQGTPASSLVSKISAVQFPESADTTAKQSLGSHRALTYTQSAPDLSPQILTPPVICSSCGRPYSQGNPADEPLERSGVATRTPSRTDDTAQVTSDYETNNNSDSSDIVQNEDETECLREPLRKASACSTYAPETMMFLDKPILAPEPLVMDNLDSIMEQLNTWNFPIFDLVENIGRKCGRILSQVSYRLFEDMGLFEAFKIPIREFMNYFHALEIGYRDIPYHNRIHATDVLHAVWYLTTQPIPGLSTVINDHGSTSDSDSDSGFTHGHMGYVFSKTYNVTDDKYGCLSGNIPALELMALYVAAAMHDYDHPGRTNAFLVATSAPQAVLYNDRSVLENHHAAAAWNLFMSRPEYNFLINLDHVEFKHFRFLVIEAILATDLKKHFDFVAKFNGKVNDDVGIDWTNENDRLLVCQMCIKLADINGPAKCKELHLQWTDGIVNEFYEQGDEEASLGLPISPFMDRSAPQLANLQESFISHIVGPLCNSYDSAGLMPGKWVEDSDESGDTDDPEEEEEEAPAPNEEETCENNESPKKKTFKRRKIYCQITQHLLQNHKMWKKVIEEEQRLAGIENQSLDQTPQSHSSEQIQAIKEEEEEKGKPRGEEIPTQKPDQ

Mu-type opioid receptor = Mu-type opioid receptor (Homo sapiens, UniProt P35372)
Mu-type opioid receptor, sequence (P35372 whole entry): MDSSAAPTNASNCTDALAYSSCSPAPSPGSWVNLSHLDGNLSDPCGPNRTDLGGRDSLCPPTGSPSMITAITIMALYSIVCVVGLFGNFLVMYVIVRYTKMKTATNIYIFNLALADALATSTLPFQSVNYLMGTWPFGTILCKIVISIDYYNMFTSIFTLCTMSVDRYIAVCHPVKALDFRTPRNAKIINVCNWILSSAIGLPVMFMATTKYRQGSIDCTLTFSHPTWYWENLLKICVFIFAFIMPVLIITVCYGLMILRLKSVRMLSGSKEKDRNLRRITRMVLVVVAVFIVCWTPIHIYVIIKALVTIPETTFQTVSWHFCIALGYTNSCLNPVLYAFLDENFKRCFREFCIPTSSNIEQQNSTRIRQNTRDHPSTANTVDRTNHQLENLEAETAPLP

[3] = biological target: T1, Muscarinic acetylcholine receptor M1 (Homo sapiens, UniProt P11229); type: functional, cell-based
T1 sequence (P11229 whole entry): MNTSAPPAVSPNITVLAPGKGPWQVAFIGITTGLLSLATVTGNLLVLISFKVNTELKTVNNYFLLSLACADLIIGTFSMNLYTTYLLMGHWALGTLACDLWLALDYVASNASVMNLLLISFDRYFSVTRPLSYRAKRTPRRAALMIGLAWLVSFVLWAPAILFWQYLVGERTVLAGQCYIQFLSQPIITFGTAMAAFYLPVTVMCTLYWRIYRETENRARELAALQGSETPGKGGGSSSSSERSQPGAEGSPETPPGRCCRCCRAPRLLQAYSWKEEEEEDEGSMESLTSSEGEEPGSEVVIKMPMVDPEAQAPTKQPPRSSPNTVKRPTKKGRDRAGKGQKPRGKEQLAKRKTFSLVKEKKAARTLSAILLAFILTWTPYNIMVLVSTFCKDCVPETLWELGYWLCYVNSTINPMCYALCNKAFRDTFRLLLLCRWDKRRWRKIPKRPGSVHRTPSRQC

Progesterone receptor = biological target: T2, Progesterone receptor (Homo sapiens, UniProt P06401)
T2 sequence (P06401 whole entry): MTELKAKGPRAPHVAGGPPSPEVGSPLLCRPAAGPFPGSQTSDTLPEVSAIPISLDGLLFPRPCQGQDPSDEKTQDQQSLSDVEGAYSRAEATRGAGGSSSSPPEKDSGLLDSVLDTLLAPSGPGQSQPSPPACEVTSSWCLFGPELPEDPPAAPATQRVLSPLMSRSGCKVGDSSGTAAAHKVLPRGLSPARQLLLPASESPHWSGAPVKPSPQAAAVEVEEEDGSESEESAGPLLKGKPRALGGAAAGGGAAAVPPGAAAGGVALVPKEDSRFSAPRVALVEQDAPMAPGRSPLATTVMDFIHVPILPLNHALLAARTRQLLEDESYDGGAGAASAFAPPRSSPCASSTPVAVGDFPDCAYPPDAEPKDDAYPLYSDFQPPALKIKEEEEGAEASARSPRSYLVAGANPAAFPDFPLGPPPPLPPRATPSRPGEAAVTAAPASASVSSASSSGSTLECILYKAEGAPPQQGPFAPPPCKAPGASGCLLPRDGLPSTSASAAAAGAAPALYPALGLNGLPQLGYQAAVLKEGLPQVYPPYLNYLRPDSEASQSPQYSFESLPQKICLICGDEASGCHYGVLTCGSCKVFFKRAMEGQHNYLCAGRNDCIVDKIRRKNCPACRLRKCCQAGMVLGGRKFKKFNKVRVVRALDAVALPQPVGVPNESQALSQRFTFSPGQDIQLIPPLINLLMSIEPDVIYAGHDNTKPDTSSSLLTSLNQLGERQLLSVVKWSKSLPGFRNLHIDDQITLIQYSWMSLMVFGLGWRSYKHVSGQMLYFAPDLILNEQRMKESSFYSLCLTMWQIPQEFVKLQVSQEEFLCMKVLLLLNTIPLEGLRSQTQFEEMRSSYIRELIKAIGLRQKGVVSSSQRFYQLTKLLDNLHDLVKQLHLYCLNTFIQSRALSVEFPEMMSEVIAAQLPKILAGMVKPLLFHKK

[4] = biological target: Sodium-dependent noradrenaline transporter (Homo sapiens, UniProt P23975)
Sodium-dependent noradrenaline transporter, sequence (P23975 whole entry): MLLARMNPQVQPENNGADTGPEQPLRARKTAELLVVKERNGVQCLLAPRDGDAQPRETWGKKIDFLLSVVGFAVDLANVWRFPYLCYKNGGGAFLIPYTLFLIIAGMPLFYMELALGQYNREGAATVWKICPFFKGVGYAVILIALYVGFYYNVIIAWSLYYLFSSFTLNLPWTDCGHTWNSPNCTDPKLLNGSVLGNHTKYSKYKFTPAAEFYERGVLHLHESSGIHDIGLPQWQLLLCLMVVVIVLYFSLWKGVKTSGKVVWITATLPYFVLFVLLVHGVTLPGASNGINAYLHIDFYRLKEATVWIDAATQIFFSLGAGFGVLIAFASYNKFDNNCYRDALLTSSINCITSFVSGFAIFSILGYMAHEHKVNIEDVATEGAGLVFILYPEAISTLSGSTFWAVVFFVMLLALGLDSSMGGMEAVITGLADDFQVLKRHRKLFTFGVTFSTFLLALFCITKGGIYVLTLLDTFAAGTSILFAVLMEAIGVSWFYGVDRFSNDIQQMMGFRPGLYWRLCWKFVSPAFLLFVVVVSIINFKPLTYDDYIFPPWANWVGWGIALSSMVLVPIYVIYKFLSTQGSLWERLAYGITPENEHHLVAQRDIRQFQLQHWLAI

[5] = biological target: Prostaglandin G/H synthase 1 (Homo sapiens, UniProt P23219); type: functional
D(1A) dopamine receptor [6] = biological target: T3, D(1A) dopamine receptor (Homo sapiens, UniProt P21728); type: functional, cell-based
T3 sequence (P21728 whole entry): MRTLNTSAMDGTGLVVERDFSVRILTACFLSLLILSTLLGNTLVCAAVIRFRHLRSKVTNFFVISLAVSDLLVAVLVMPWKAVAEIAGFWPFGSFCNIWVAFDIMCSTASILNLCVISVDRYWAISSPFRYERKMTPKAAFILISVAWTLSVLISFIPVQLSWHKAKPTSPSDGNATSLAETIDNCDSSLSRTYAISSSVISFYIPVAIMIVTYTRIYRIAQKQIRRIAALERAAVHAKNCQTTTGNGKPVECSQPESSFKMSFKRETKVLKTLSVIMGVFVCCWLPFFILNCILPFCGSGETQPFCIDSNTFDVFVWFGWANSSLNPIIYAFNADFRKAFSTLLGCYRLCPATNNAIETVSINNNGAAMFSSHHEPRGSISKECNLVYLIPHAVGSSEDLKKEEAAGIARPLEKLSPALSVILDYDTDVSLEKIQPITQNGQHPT

D(4) dopamine receptor = biological target: T4, D(4) dopamine receptor (Homo sapiens, UniProt P21917)
T4 sequence (P21917 whole entry): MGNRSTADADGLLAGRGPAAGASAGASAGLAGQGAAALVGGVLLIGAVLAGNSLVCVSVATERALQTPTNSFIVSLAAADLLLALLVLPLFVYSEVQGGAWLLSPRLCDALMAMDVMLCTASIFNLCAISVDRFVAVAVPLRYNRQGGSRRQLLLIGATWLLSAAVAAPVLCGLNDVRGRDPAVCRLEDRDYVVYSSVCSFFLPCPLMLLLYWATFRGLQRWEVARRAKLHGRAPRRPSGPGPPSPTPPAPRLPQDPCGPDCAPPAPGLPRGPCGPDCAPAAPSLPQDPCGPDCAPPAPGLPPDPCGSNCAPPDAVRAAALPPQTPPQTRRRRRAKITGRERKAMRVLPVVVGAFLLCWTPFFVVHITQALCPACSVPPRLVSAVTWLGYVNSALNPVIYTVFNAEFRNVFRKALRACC

D(1A) dopamine receptor [7] = biological target: T3, D(1A) dopamine receptor
[8] = biological target: Neurotensin receptor type 1 (Homo sapiens, UniProt P30989)
Neurotensin receptor type 1, sequence (P30989 whole entry): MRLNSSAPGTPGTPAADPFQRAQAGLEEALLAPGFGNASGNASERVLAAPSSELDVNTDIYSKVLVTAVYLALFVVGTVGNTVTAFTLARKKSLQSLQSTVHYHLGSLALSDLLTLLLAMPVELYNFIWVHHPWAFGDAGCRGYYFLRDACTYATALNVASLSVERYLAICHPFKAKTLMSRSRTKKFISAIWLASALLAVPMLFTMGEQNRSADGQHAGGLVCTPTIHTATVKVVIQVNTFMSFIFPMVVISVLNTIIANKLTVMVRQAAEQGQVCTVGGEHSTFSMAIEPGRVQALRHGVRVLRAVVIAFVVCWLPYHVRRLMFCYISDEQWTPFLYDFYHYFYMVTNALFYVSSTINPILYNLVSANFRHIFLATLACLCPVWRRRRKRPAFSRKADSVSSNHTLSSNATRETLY

D(1A) dopamine receptor [9] = biological target: T3, D(1A) dopamine receptor; remark: listed apart in the source
[10] = biological target: Voltage-dependent L-type calcium channel subunit alpha-1C (Homo sapiens, UniProt Q13936); type: functional, cell-based
[11] = biological target: T5, Gamma-aminobutyric acid receptor subunit alpha-1/alpha-2/beta-2/gamma-2 (Homo sapiens, UniProt P14867+P47870+P18507+P47869); type: protein-complex assay
T5 sequence (P14867 whole entry): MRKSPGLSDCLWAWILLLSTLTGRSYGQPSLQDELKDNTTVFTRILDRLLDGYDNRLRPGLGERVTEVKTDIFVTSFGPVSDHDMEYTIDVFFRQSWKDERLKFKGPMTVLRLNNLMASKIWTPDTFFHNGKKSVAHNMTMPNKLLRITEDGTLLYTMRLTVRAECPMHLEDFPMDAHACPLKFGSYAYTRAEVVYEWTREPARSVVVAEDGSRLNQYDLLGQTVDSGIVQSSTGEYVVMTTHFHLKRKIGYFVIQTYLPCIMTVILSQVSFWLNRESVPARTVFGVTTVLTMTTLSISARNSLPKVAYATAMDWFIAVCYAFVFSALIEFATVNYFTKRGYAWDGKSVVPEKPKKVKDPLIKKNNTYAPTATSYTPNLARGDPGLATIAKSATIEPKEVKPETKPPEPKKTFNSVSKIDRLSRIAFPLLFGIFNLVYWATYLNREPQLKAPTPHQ
T5 sequence (P47870 whole entry): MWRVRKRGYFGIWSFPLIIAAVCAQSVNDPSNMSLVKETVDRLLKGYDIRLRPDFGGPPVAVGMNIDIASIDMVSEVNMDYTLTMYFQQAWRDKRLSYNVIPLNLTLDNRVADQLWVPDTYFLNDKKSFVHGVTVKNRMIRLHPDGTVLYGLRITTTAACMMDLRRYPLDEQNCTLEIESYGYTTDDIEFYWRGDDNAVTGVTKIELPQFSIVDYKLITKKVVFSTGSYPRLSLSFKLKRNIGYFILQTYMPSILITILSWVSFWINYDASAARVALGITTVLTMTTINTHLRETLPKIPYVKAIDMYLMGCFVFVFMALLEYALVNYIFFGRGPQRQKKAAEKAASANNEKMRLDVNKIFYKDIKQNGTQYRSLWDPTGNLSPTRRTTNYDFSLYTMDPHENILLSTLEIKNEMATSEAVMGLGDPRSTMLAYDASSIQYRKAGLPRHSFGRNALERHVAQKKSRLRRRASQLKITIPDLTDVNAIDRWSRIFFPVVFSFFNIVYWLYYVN
T5 sequence (P18507 whole entry): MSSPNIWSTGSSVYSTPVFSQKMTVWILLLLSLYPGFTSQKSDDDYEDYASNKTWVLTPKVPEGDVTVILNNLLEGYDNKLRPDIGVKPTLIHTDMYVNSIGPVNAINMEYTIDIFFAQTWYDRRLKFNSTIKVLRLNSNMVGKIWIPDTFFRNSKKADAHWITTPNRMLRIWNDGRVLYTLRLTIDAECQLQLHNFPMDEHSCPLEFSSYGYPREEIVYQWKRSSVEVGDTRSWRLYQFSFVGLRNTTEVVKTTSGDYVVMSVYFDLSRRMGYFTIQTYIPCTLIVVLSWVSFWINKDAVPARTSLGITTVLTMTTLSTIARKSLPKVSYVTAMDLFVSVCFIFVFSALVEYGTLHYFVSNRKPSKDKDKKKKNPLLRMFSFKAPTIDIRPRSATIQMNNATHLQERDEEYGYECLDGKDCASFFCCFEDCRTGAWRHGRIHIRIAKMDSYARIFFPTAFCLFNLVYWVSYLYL
T5 sequence (P47869 whole entry): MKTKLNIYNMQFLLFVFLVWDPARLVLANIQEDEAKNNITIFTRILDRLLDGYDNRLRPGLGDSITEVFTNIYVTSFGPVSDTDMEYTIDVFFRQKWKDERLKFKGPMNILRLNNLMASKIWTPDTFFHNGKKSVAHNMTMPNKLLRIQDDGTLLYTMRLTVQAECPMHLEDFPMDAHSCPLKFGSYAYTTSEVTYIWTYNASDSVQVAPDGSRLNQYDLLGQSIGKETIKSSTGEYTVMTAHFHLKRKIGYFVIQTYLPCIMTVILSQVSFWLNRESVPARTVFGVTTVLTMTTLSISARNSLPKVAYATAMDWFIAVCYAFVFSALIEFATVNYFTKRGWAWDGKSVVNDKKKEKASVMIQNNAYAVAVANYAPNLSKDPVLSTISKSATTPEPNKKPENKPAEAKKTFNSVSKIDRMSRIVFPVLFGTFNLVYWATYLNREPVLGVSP

[12] = biological target: T5, Gamma-aminobutyric acid receptor subunit alpha-1/alpha-2/beta-2/gamma-2; type: functional, cell-based
Estrogen receptor beta = Estrogen receptor beta (Homo sapiens, UniProt Q92731)
[13] = biological target: Gamma-aminobutyric acid type B receptor subunit 1 (Homo sapiens, UniProt Q9UBS5)
[14] = biological target: Receptor tyrosine-protein kinase erbB-2 (Homo sapiens, UniProt P04626); type: functional
[15] = biological target: 5-hydroxytryptamine receptor 2A (Homo sapiens, UniProt P28223)
Further: assay procedure not described here.

## CO[C@]12C[C@@H](COC(=O)c3cncc(Br)c3)CN(C)[C@@H]1Cc1cn(C)c3cccc2c13 [NICERGOLINE]
Prothrombin
  AC50: > 30 µM
[1]
  AC50: > 10 µM
[2]
  AC50: > 30 µM
Mu-type opioid receptor
  AC50: 2.38 µM
[3]
  AC50: > 30 µM
Progesterone receptor
  AC50: > 30 µM
[4]
  AC50: 11.1 µM
[5]
  AC50: > 30 µM

## Cc1cc(C(C)(C)C)c(O)c(C)c1CC1=NCCN1 [OXYMETAZOLINE]
D(1A) dopamine receptor [6]
  AC50: > 30 µM

## COc1cccc(C2(O)CCCCC2CN(C)C)c1 (configuration not stated) [TRAMADOL]
D(4) dopamine receptor
  AC50: > 10 µM
D(1A) dopamine receptor [7]
  AC50: > 10 µM
[8]
  AC50: > 30 µM

## THIMEROSAL
Prothrombin
  AC50: > 30 µM
D(1A) dopamine receptor [9]
  AC50: 10 µM
[10]
  AC50: > 50 µM
[11]
  AC50: > 30 µM
[2]
  AC50: > 30 µM
[12]
  AC50: > 30 µM
Progesterone receptor
  AC50: > 30 µM
[4]
  AC50: > 30 µM

## Cc1c(OCC(F)(F)F)ccnc1C[S+]([O-])c1nc2ccccc2[nH]1 (configuration not stated) [LANSOPRAZOLE]
Estrogen receptor beta
  AC50: > 30 µM
D(4) dopamine receptor
  AC50: 2.11 µM
[13]
  AC50: > 10 µM
D(1A) dopamine receptor [7]
  AC50: > 10 µM
[8]
  AC50: > 30 µM

## CC(CC1c2ccccc2CCc2ccccc21)CN(C)C (configuration not stated) [BUTRIPTYLINE]
[14]
  AC50: > 30 µM

## Cc1nnc2n1-c1ccc(Cl)cc1C(c1ccccc1Cl)=NC2 [TRIAZOLAM]
[15]
  AC50: 3.2 µM
